Measured values reported in US12077503B2, “Substituted cyclic amides and their use as herbicides” (FMC CORPORATION, priority 2015, dated 2024).

How the values were obtained:
Type in all cases: in vivo
[1] = tested on: pigweed (Amaranthus retroflexus); experiment: Test A preemergence; conditions: Amaranthus retroflexus, pre-emergence, 240 h, Preemergence; for pest or weed control at 31 g/ha: 31 g ai/ha, 0 to 100 scale where 0 is no effect and 100 is complete control, read-out: Pigweed plant response rating; for pest or weed control at 125 g/ha: 125 g ai/ha, 0 to 100 scale (0 no effect, 100 complete control), read-out: Plant response rating, Pigweed
[2] = tested on: ragweed (common ragweed, Ambrosia elatior); experiment: Test A preemergence; conditions: Ambrosia artemisiifolia, pre-emergence, 240 h, Preemergence; for pest or weed control at 31 g/ha: 31 g ai/ha, 0 to 100 scale where 0 is no effect and 100 is complete control, read-out: Ragweed plant response rating; for pest or weed control at 125 g/ha: 125 g ai/ha, 0 to 100 scale (0 no effect, 100 complete control), read-out: Plant response rating, Ragweed
Method in brief: (§1)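 Visual injury, scored on a 0–100 scale relative to untreated controls, was recorded about 10 d after application. Treatments were a preemergence soil spray over planted seeds or a postemergence spray on plants at the one- to two-leaf stage, 2 to 10 cm tall, all in loam soil–sand blend in the greenhouse.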

[3] = tested on: barnyardgrass (Echinochloa crus-galli); experiment: Test A preemergence; conditions: Echinochloa crus-galli, pre-emergence, 240 h, Preemergence; for pest or weed control at 31 g/ha: 31 g ai/ha, 0 to 100 scale where 0 is no effect and 100 is complete control, read-out: Barnyardgrass plant response rating; for pest or weed control at 125 g/ha: 125 g ai/ha, 0 to 100 scale (0 no effect, 100 complete control), read-out: Plant response rating, Barnyardgrass
Method in brief: as §1

Kochia (Kochia scoparia) [4] = experiment: Test A preemergence; conditions: Bassia scoparia, pre-emergence, 240 h, Preemergence; for pest or weed control at 31 g/ha: 31 g ai/ha, 0 to 100 scale where 0 is no effect and 100 is complete control, read-out: Kochia plant response rating; for pest or weed control at 125 g/ha: 125 g ai/ha, 0 to 100 scale (0 no effect, 100 complete control), read-out: Plant response rating, Kochia
Method in brief: as §1

[5] = tested on: ryegrass, Italian (Italian ryegrass, Lolium multiflorum); experiment: Test A preemergence; conditions: Lolium multiflorum, pre-emergence, 240 h, Preemergence; for pest or weed control at 31 g/ha: 31 g ai/ha, 0 to 100 scale where 0 is no effect and 100 is complete control, read-out: Ryegrass, Italian plant response rating; for pest or weed control at 125 g/ha: 125 g ai/ha, 0 to 100 scale (0 no effect, 100 complete control), read-out: Plant response rating, Ryegrass, Italian
Method in brief: as §1

[6] = tested on: giant foxtail (Setaria faberii); experiment: Test A preemergence; conditions: Setaria faberi, pre-emergence, 240 h, Preemergence; for pest or weed control at 31 g/ha: 31 g ai/ha, 0 to 100 scale where 0 is no effect and 100 is complete control, read-out: Foxtail, Giant plant response rating; for pest or weed control at 125 g/ha: 125 g ai/ha, 0 to 100 scale (0 no effect, 100 complete control), read-out: Plant response rating, Foxtail, Giant
Method in brief: as §1

[7] = tested on: ducksalad (Heteranthera limosa); experiment: Test B flooded paddy test; conditions: Heteranthera limosa, 360 h, Flood, 250 g ai/ha; visually evaluated after 13 to 15 d; read-out: Plant response rating, Ducksalad (0 to 100 scale where 0 is no effect and 100 is complete control)
Method in brief: (§2)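 Response scored visually against untreated controls, 0 = no effect and 100 = complete control, 13–15 d after treatment in the greenhouse. Compounds added to paddy water held 3 cm above soil surface. Treatment given at 2-leaf stage.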

[8] = tested on: barnyardgrass (Echinochloa crus-galli); experiment: Test B flooded paddy test; conditions: Echinochloa crus-galli, 360 h, Flood, 250 g ai/ha; visually evaluated after 13 to 15 d; read-out: Plant response rating, Barnyardgrass (0 to 100 scale where 0 is no effect and 100 is complete control)
Method in brief: as §2

rice (Oryra sativa) = experiment: Test B flooded paddy test; conditions: Oryza sativa, 360 h, Flood, 250 g ai/ha; visually evaluated after 13 to 15 d; read-out: Plant response rating, Rice (0 to 100 scale where 0 is no effect and 100 is complete control)
Method in brief: as §2

[9] = tested on: sedge, umbrella (small-flower umbrella sedge, Cyperus difformis); experiment: Test B flooded paddy test; conditions: Cyperus difformis, 360 h, Flood, 250 g ai/ha; visually evaluated after 13 to 15 d; read-out: Plant response rating, Sedge, Umbrella (0 to 100 scale where 0 is no effect and 100 is complete control)
Method in brief: as §2

corn (Zea mays) = experiment: Test A postemergence; conditions: Zea mays, post-emergence, 240 h, Postemergence, read-out: Corn plant response rating (0 to 100 scale); for plant injury at 125 g/ha: 125 g ai/ha, visual rating about 10 d after treatment; for plant injury at 31 g/ha: 31 g ai/ha, 0 is no effect, 100 is complete control
Method in brief: as §1

[10] = tested on: blackgrass (Alopecurus myosuroides); experiment: Test A postemergence; conditions: Alopecurus myosuroides, post-emergence, 240 h, Postemergence, read-out: Blackgrass plant response rating (0 to 100 scale); for pest or weed control at 125 g/ha: 125 g ai/ha, visual rating about 10 d after treatment; for pest or weed control at 31 g/ha: 31 g ai/ha, 0 is no effect, 100 is complete control
Method in brief: as §1

[11] = tested on: pigweed (Amaranthus retroflexus); experiment: Test A postemergence; conditions: Amaranthus retroflexus, post-emergence, 240 h, Postemergence, read-out: Pigweed plant response rating (0 to 100 scale); for pest or weed control at 125 g/ha: 125 g ai/ha, visual rating about 10 d after treatment; for pest or weed control at 31 g/ha: 31 g ai/ha, 0 is no effect, 100 is complete control
Method in brief: as §1

[12] = tested on: ragweed (common ragweed, Ambrosia elatior); experiment: Test A postemergence; conditions: Ambrosia artemisiifolia, post-emergence, 240 h, Postemergence, read-out: Ragweed plant response rating (0 to 100 scale); for pest or weed control at 125 g/ha: 125 g ai/ha, visual rating about 10 d after treatment; for pest or weed control at 31 g/ha: 31 g ai/ha, 0 is no effect, 100 is complete control
Method in brief: as §1

[13] = tested on: barnyardgrass (Echinochloa crus-galli); experiment: Test A postemergence; conditions: Echinochloa crus-galli, post-emergence, 240 h, Postemergence; for pest or weed control at 125 g/ha: 125 g ai/ha, visual rating about 10 d after treatment, read-out: Barnyardgrass plant response rating (0 to 100 scale, 0 no effect, 100 complete control); for pest or weed control at 31 g/ha: 31 g ai/ha, 0 is no effect, 100 is complete control, read-out: Barnyardgrass plant response rating (0 to 100 scale)
Method in brief: as §1

Kochia (Kochia scoparia) [14] = experiment: Test A postemergence; conditions: Bassia scoparia, post-emergence, 240 h, Postemergence, read-out: Kochia plant response rating (0 to 100 scale); for pest or weed control at 125 g/ha: 125 g ai/ha, visual rating about 10 d after treatment; for pest or weed control at 31 g/ha: 31 g ai/ha, 0 is no effect, 100 is complete control
Method in brief: as §1

[15] = tested on: ryegrass, Italian (Italian ryegrass, Lolium multiflorum); experiment: Test A postemergence; conditions: Lolium multiflorum, post-emergence, 240 h, Postemergence, read-out: Ryegrass, Italian plant response rating (0 to 100 scale); for pest or weed control at 125 g/ha: 125 g ai/ha, visual rating about 10 d after treatment; for pest or weed control at 31 g/ha: 31 g ai/ha, 0 is no effect, 100 is complete control
Method in brief: as §1

[16] = tested on: wheat (Triticum aestivum); experiment: Test A postemergence; conditions: Triticum aestivum, post-emergence, 240 h, Postemergence, read-out: Wheat plant response rating (0 to 100 scale); for plant injury at 125 g/ha: 125 g ai/ha, visual rating about 10 d after treatment; for plant injury at 31 g/ha: 31 g ai/ha, 0 is no effect, 100 is complete control
Method in brief: as §1

[17] = tested on: Galium (catchweed bedstraw, Galium aparine); experiment: Test A postemergence; conditions: Galium, post-emergence, 240 h, Postemergence, read-out: Galium plant response rating (0 to 100 scale); for pest or weed control at 125 g/ha: 125 g ai/ha, visual rating about 10 d after treatment; for pest or weed control at 31 g/ha: 31 g ai/ha, 0 is no effect, 100 is complete control
Method in brief: as §1

[18] = tested on: giant foxtail (Setaria faberii); experiment: Test A postemergence; conditions: Setaria faberi, post-emergence, 240 h, Postemergence, read-out: Foxtail, Giant plant response rating (0 to 100 scale); for pest or weed control at 125 g/ha: 125 g ai/ha, visual rating about 10 d after treatment; for pest or weed control at 31 g/ha: 31 g ai/ha, 0 is no effect, 100 is complete control
Method in brief: as §1

Structure (SMILES)	pest or weed control at 31 g/ha [1]	pest or weed control at 125 g/ha [1]	pest or weed control at 31 g/ha [2]	pest or weed control at 125 g/ha [2]	pest or weed control at 31 g/ha [3]	pest or weed control at 125 g/ha [3]	pest or weed control at 31 g/ha (Kochia (Kochia scoparia) [4])	pest or weed control at 125 g/ha (Kochia (Kochia scoparia) [4])	pest or weed control at 31 g/ha [5]	pest or weed control at 125 g/ha [5]	pest or weed control at 31 g/ha [6]	pest or weed control at 125 g/ha [6]	pest or weed control at 250 g/ha [7]	pest or weed control at 250 g/ha [8]	pest or weed control at 250 g/ha (rice (Oryra sativa))	pest or weed control at 250 g/ha [9]	plant injury at 125 g/ha (corn (Zea mays))	plant injury at 31 g/ha (corn (Zea mays))	pest or weed control at 125 g/ha [10]	pest or weed control at 31 g/ha [10]	further results
Cc1ccc([C@H]2CN(C)C(=O)[C@@H]2C(=O)Nc2cccc(F)n2)cc1 [Compound 1375]	0%	0%	40%	70%	90%	100%	50%	70%	0%	70%	90%	100%	95%	70%	0%	0%	30%	0%	40%	0%	pest or weed control at 125 g/ha [11]: 0%; pest or weed control at 31 g/ha [11]: 0%; pest or weed control at 125 g/ha [12]: 20%; pest or weed control at 31 g/ha [12]: 0%; pest or weed control at 125 g/ha [13]: 100%; pest or weed control at 31 g/ha [13]: 70%; pest or weed control at 125 g/ha (Kochia (Kochia scoparia) [14]): 50%; pest or weed control at 31 g/ha (Kochia (Kochia scoparia) [14]): 30%; pest or weed control at 125 g/ha [15]: 20%; pest or weed control at 31 g/ha [15]: 0%; plant injury at 125 g/ha [16]: 30%; plant injury at 31 g/ha [16]: 0%; pest or weed control at 125 g/ha [17]: 50%; pest or weed control at 31 g/ha [17]: 20%; pest or weed control at 125 g/ha [18]: 90%; pest or weed control at 31 g/ha [18]: 70%
Cc1cccc([C@H]2CN(C)C(=O)[C@@H]2C(=O)Nc2ccc(F)nc2F)c1 [Compound 1349]	0%	0%	0%	0%	20%	100%	0%	20%	0%	0%	100%	100%	95%	90%	0%	0%	0%	0%	20%	0%	pest or weed control at 125 g/ha [11]: 0%; pest or weed control at 31 g/ha [11]: 0%; pest or weed control at 125 g/ha [12]: 0%; pest or weed control at 31 g/ha [12]: 0%; pest or weed control at 125 g/ha [13]: 90%; pest or weed control at 31 g/ha [13]: 70%; pest or weed control at 125 g/ha (Kochia (Kochia scoparia) [14]): 30%; pest or weed control at 31 g/ha (Kochia (Kochia scoparia) [14]): 0%; pest or weed control at 125 g/ha [15]: 20%; pest or weed control at 31 g/ha [15]: 0%; plant injury at 125 g/ha [16]: 0%; plant injury at 31 g/ha [16]: 0%; pest or weed control at 125 g/ha [17]: 60%; pest or weed control at 31 g/ha [17]: 30%; pest or weed control at 125 g/ha [18]: 80%; pest or weed control at 31 g/ha [18]: 60%
